Like-named read-outs stand apart in the source and are kept apart here.

Data on seven compounds can be found in paper PMC140036 (BMC Pharmacology, 2003).

The target of assay [1] is T1, mouse μ opioid receptor (Mus musculus, UniProt P42866). Kind of assay: cell-based. The note with it: for Emax: HEK293, read-out: Max Inhibition.
Assay [2] concerns the target T1, mouse μ opioid receptor. Kind of assay: biochemical. It is filed as binding.

T1 sequence (P42866 whole entry): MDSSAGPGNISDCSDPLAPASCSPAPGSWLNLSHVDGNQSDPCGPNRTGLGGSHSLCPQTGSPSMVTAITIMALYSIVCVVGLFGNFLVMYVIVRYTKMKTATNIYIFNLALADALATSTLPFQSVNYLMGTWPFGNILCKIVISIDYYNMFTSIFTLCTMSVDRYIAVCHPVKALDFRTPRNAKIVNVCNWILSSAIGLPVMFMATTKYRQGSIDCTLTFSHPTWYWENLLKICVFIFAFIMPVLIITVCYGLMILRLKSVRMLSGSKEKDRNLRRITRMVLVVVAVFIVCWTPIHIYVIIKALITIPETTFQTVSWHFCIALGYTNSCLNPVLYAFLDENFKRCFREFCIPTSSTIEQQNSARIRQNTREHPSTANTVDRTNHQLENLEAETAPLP

One may read the IC50 as the concentration needed to halve the response being measured. Regarding `C=C1C[C@H](C)[C@H]2[C@H]3Cc4ccc(O)cc4[C@@]2(CCN3CC2CCC2)C1` [Xorphanol], at mouse μ opioid receptor [1], the “Max Inhibition” value is reported as 29 ± 2 ⊕⊕^## %. In addition, on mouse μ opioid receptor [1] (read-out: IC50 ± SEM), the IC50 was 3.4 ± 1.7 nM.
Consider `Oc1ccc2c(c1)[C@@]13CCCC[C@@]1(O)[C@@H](C2)N(CC1CCC1)CC3` [Butorphanol], for which, on mouse μ opioid receptor [1], the IC50 came to 3 ± 2 nM and the Emax turned out to be 58 ± 5%.
For the compound `C[C@H]1[C@H]2Cc3ccc(O)cc3[C@]1(C)CCN2C` [Metazocine], on mouse μ opioid receptor [1], the half-inhibitory concentration (IC50) worked out at 2 ± 0.1 nM and the Emax turned out to be 41 ± 4%.
For `C[C@@]12CCCCC[C@@H](Cc3ccc(O)cc31)[C@@H]2N` [Dezocine], in that order: 1.3 ± 0.6 nM and 43 ± 2%.
Take `C=CCN1CC[C@]23c4c5ccc(O)c4O[C@H]2[C@@H](O)C=C[C@H]3[C@H]1C5` [Nalorphine]: at mouse μ opioid receptor [1], the IC50 was 2.7 ± 1.4 nM and the Emax stood at 50 ± 2%.
Regarding `C[C@@H](NC(=O)[C@@H](N)Cc1ccc(O)cc1)C(=O)NCC(=O)N(C)[C@@H](Cc1ccccc1)C(=O)NCCO` [DAMGO], the “Max Inhibition” value at mouse μ opioid receptor [1] was 58 ± 5%.
The term Ki denotes a dissociation constant, usually derived from enzyme kinetics or from competition with a known ligand. Low readings indicate higher affinity, high ones lower affinity. As for `C[C@H]1[C@H]2Cc3ccc(O)cc3[C@]1(C)CCN2CC1CC1` [Cyclazocine], the affinity at mouse μ opioid receptor [2], expressed as Ki, was 0.22 ± 0.02 nM. Also, on mouse μ opioid receptor [1], it took 21 ± 8 nM to reach half-maximal inhibition (IC50) and the Emax came out at 37 ± 2%.
